By Vd is commonly meant a proportionality between amount in the body and measured concentration, not a real space. By clearance is commonly meant the volume of plasma or blood freed of the substance per unit of time. Higher therefore signals a high capacity for elimination. For orientation: pEC50 means the negative decadic logarithm of the EC50, by convention in mol/L.

Structures are written as SMILES. pEC50: −log10 of the molar value. “Also recorded” adds a separate entry of the source. Counter-ions that a name gives are not always drawn.

System in the first series: not listed separately
Nature of the series: Pharmacokinetics after i.v. administration to rats. The conditions noted are these: rat, in vivo, iv, 0.5 mg/kg. From the text: Pharmacokinetics of compounds provided herein can used determined using routine methods known to those skilled in the art.
Molecule `CC(C)(C(=O)O)c1cc(NC(=O)[C@H](Cc2ccccc2)NCc2cscn2)cc(-c2ccncc2)c1` [Example 86, (S)-2-methyl-2-(3-(3-phenyl-2-(thiazol-4-ylmethylamino)propanamido)-5-(pyridin-4-yl)phenyl)propanoic acid] gave a Vd of 1.3 L/kg and a clearance of 31.7 mL/min/kg.

The target in a further series is T1, human receptor found in pancreatic islet cells (Homo sapiens, UniProt Q7Z601).
T1 sequence (Q7Z601 1-462): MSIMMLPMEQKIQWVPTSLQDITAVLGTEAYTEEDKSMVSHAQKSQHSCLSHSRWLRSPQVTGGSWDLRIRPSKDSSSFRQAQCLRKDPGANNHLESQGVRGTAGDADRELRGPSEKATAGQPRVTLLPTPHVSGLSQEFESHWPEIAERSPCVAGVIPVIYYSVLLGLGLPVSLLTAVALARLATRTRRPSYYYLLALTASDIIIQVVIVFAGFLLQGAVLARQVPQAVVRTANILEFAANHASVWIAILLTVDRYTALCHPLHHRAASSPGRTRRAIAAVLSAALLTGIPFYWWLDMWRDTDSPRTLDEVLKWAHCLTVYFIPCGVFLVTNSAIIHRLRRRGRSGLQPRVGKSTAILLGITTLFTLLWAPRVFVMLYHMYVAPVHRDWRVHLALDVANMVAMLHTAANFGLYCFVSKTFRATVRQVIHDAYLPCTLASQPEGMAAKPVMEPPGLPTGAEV
The series is described as follows: Activation of intracellular IP3 signaling in transfected cells (Activation Assay). The class given is cell-based. The conditions noted are these: calculated from IP3 concentration measurements in cells transfected with the human receptor. As for the experimental part: Table 12 provides exemplary compounds that were prepared and assessed, following protocols known to those of skilled in the art, for activation of intracellular inositol trisphosphate (IP3) signaling pathways that lead to elevation of intracellular calcium concentration. EC50 values provided in Table 12 were calculated from IP3 concentration measurements in cells transfected with a human receptor found in pancreatic islet cells, inter alia.
For the molecule `Cc1cc(-c2cc(-c3n[nH]c(=S)o3)c3c(c2)N(C(=O)[C@H](Cc2ccccc2)NCc2cscn2)CC3)ccn1` [Example 66, (2S)-1-(6-(2-Methylpyridin-4-yl)-4-(5-thioxo-4,5-dihydro-1,3,4-oxadiazol-2-yl)indolin-1-yl)-3-phenyl-2-(thiazol-4-ylmethylamino)propan-1-one], the pEC50 is above 7.30. Still for that read-out and setting: the value for `Cc1nnc(-c2cc(-c3ccncc3)cc3c2CCN3C(=O)[C@H](Cc2ccccc2)NCc2cscn2)o1` [Example 67, (2S)-1-(4-(5-Methyl-1,3,4-oxadiazol-2-yl)-6-(pyridin-4-yl)indolin-1-yl)-3-phenyl-2-(thiazol-4-ylmethylamino)propan-1-one] was 7.00 to 7.30; that for `O=C([C@H](Cc1ccccc1)NCc1cscn1)N1CCc2c(-c3nnco3)cc(-c3ccncc3)cc21` [Example 68, (2S)-1-(4-(1,3,4-Oxadiazol-2-yl)-6-(pyridin-4-yl)indolin-1-yl)-3-phenyl-2-(thiazol-4-ylmethylamino)propan-1-one] was 6.00 to 7.00. Same read-out and setting: the value for `Cc1nnc(-c2cc(-c3ccncc3)cc3c2CCN3C(=O)[C@H](Cc2ccccc2)NCc2cscn2)[nH]1` [Example 69, (2S)-1-(4-(5-Methyl-4H-1,2,4-triazol-3-yl)-6-(pyridin-4-yl)indolin-1-yl)-3-phenyl-2-(thiazol-4-ylmethylamino)propan-1-one] was 7.00 to 7.30. On the same count and under the same terms, the value for `O=C(NCC1CC1)c1cc(NC(=O)[C@H](Cc2ccccc2)NCc2cscn2)cc(-c2ccncc2)c1` [Example 70, (S)—N-(Cyclopropylmethyl)-3-(3-phenyl-2-(thiazol-4-ylmethylamino)propanamido)-5-(pyridin-4-yl)benzamide] was 7.00 to 7.30; that for `NC(=O)CNC(=O)c1cc(-c2ccncc2)cc2c1CCN2C(=O)[C@H](Cc1ccccc1)NCc1cscn1` [Example 71, (S)—N-(2-Amino-2-oxoethyl)-1-(3-phenyl-2-(thiazol-4-ylmethylamino)propanoyl)-6-(pyridin-4-yl)indoline-4-carboxamide] was 7.00 to 7.30.

With `COC(=O)c1cc(-c2ccnc(C)c2)cc2c1CCN2C(=O)[C@H](Cc1ccccc1)NCc1ccccn1` [Example 72, Methyl 6-(2-methylpyridin-4-yl)-1-((S)-3-phenyl-2-(pyridin-2-ylmethylamino)propanoyl)indoline-4-carboxylate], the pEC50 is 7.00 to 7.30. Same read-out and setting: in the case of `CC(C)(C)OC(=O)c1cc(NC(=O)[C@H](Cc2ccccc2)NC2(c3ccccn3)CC2)cc(-c2ccncc2)c1` [Example 73, (S)— tert-Butyl 3-(3-phenyl-2-(1-(pyridin-2-yl)cyclopropylamino)propanamido)-5-(pyridin-4-yl)benzoate] it was 6.00 to 7.00; in that of `CN(C)CCNC(=O)c1cc(NC(=O)[C@H](Cc2ccccc2)NCc2cscn2)cc(-c2ccncc2)c1` [Example 74, (S)—N-(2-(dimethylamino)ethyl)-3-(3-phenyl-2-(thiazol-4-ylmethylamino)propanamido)-5-(pyridin-4-yl)benzamide bis trifluoroacetate salt], 6.00 to 7.00; in that of `Cc1cc(-c2ccc(OCCN(C)C)c(NC(=O)[C@H](Cc3ccccc3)NCc3cscn3)c2)ccn1` [Example 75, (2S)—N-(2-(2-(Dimethylamino)ethoxy)-5-(2-methylpyridin-4-yl)phenyl)-3-phenyl-2-(thiazol-4-ylmethylamino)propanamide trifluoroacetate], 6.00 to 7.00. Still for that read-out and setting: in the case of `Cc1cc(-c2cc(NC(=O)[C@H](Cc3ccccc3)NCc3ccccn3)cc(OCCN(C)C)c2)ccn1` [Example 76, (2S)—N-(3-(2-(Dimethylamino)ethoxy)-5-(2-methylpyridin-4-yl)phenyl)-3-phenyl-2-(pyridin-2-ylmethylamino)propanamide] it was 6.00 to 7.00; in that of `COC(=O)CNC(=O)c1cc(-c2ccncc2)cc2c1CCN2C(=O)[C@H](Cc1ccccc1)NCc1cscn1` [Example 77, (S)-Methyl 2-(1-(3-phenyl-2-(thiazol-4-ylmethylamino)propanoyl)-6-(pyridin-4-yl)indoline-4-carboxamido)acetate], 6.00 to 7.00; in that of `Cc1cc(-c2cnc(OCC(=O)OC(C)(C)C)c(NC(=O)[C@H](Cc3ccccc3)NCc3cscn3)c2)ccn1` [Example 78, tert-Butyl 2-(5-(2-methylpyridin-4-yl)-3-((S)-3-phenyl-2-(thiazol-4-ylmethylamino)propanamido)pyridin-2-yloxy)acetate], above 7.30. Still for that read-out and setting: in the case of `COC(=O)C1CN(Cc2cc(NC(=O)[C@H](Cc3ccccc3)NCc3cscn3)cc(-c3ccnc(C)c3)c2)C1` [Example 79] it was 6.00 to 7.00; in that of `COC(=O)C1CN(Cc2cc(NC(=O)[C@H](Cc3ccccc3)NCc3ccccn3)cc(-c3ccnc(C)c3)c2)C1` [Example 80, Methyl 1-((16S)-3-(2-methylpyridin-4-yl)-5-((S)-3-phenyl-2-(pyridin-2-ylmethylamino)propanamido)benzyl)azetidine-3-carboxylate], 6.00 to 7.00; in that of `O=C(NCCN1CCNC1=O)c1cc(-c2ccncc2)cc2c1CCN2C(=O)[C@H](Cc1ccccc1)NCc1cscn1` [Example 81, (S)—N-(2-(2-Oxoimidazolidin-1-yl)ethyl)-1-(3-phenyl-2-(thiazol-4-ylmethylamino)propanoyl)-6-(pyridin-4-yl)indoline-4-carboxamide], 6.00 to 7.00. On to `Cn1cc(-c2ccc3c(c2)N(C(=O)[C@@H](N)Cc2ccccc2)CC3)cn1` [Example 82, (2S)-2-Amino-1-(6-(1-methyl-1H-pyrazol-4-yl)indolin-1-yl)-3-phenylpropan-1-one hydrochloride], for which the pEC50 is 5.00 to 6.00. As for `N[C@@H](Cc1ccccc1)C(=O)N1CCc2ccc(-c3ccn[nH]3)cc21` [Example 83, (2S)-1-(6-(1H-pyrazol-5-yl)indolin-1-yl)-2-amino-3-phenylpropan-1-one Ditrifluoroacetate], the pEC50 is 5.00 to 6.00. Same read-out and setting: in the case of `O=C([C@H](Cc1ccccc1)NCc1cscn1)N1CCc2ccc(-c3cncnc3)cc21` [Example 84, (S)-3-Phenyl-1-(6-(pyrimidin-5-yl)indolin-1-yl)-2-(thiazol-4-ylmethylamino)propan-1-one] it was 5.00 to 6.00; in that of `O=C([C@H](Cc1ccccc1)NCc1cscn1)N1CCc2ccc(-c3ccc(F)cc3)cc21` [Example 85, (S)-1-[6-(4-Fluoro-phenyl)-2,3-dihydro-indol-1-yl]-3-phenyl-2-[(thiazol-4-ylmethyl)-amino]-propan-1-one Trifluoroacetate], 6.00 to 7.00.

The next series deals with B6D2F1 male mice. Nature of the series: Glucose-challenge animal model (blood glucose and insulin after oral glucose). The class given is in vivo. The settings on record: mice fasted 4 hrs; 30 mg/10 mL/kg SC, glucose 2 g/10 mL/kg PO fifteen minutes later; n=10 per group. How it is done:
The following example describes how compounds can be evaluated in a glucose-challenge animal model to identify in vivo active candidate drugs useful in treating diseases and conditions related to the regulation of insulin, e.g., type 2 diabetes.
B6D2F1 male mice (aged 6-20 weeks) are fasted for 4 hrs. Blood glucose levels are then determined by glucometer from blood expressed via a tail nick. Animals are pre-dosed with test article (10 mL/kg, PO, SC or IP) or vehicle (control group) and then at a pre-determined time relative to that required for the dosed test article to achieve systemic exposure, animals are challenged with glucose (2 g/10 mL/kg, PO). Glucose levels in whole blood samples from the animals are then determined by glucometer. Glucose clearance is then calculated from the glucose levels. Insulin levels are determined by ELISA in serum or plasma isolated from the blood samples.
Test articles that increase blood levels of insulin in response to glucose challenge to a level greater than that observed in the control group represent candidate drugs for use in treating diseases and conditions related to the regulation of insulin, e.g., type 2 diabetes.
Following the protocol described above, groups of mice were treated with an exemplary compound (30 mg/10 mL/kg, SC) or vehicle (control group) (n=10 per group) and fifteen minutes later glucose (2 g/10 mL/kg, PO) was administered. FIG. 1 provides blood glucose levels measured in samples drawn from the mice at the times indicated (mean+SEM). In FIG. 1, glucose was administered at time=0.
Following the protocol described above, groups of mice (n=5-6 animals per group) were treated with 0.3, 1, 3, 5, 10 or 30 mg/10 mL/kg exemplary compound 35.1 or vehicle. Fifteen minutes later glucose (2 g/10 mL/kg, PO) was administered. Blood samples were drawn at various time points before and up to 90 minutes after glucose administration. AUC values are calculated from plots of glucose levels to assess differences in observed glucose levels in treated and control groups, as provided in FIG. 3.
Following the protocol described above, groups of mice (n=7 per group) were treated with 0.1, 0.3, 1, 3, 5, or 30 mg/10 mL/kg exemplary compound 35.1 or vehicle. Fifteen minutes later glucose (2 g/10 mL/kg, PO) was administered, and a blood sample was withdrawn 7.5 min after glucose administration. In vivo serum concentrations of 35.1 (termed “Exposure”) were determined by liquid chromatography/mass spectrometry (LC/MS) for each of the groups. Concentrations of glucose and insulin in the blood samples were determined and plotted against the log Exposure of 35.1 for each group to determine EC50 values. […] FIG. 5 provides a plot of insulin concentrations versus log Exposure of 35.1.
On to `CC(C)(C(=O)O)c1cc(NC(=O)[C@H](Cc2ccccc2)NCc2cscn2)cc(-c2ccncc2)c1` [Example 86, (S)-2-methyl-2-(3-(3-phenyl-2-(thiazol-4-ylmethylamino)propanamido)-5-(pyridin-4-yl)phenyl)propanoic acid], for which the “blood glucose levels versus vehicle-treated control animals (FIG. 1)” value was “statistically significant (p<0.05) differences in glucose levels; also recorded: decreases in blood glucose levels”.
